Measurements reported in patent US10524472B2, “Elicitor peptides having disrupted hypersensitive response box and use thereof” (Plant Health Care, Inc., priority 2014, dated 2020).
Marks after values point to notes of the source that are not given here.

Tests used:
[1] = test system: tobacco mosaic virus (TMV); test: Induction of resistance to tobacco mosaic virus in tobacco; type: in vivo; settings: for TMV response / effectiveness against TMV infection (summary of Table 22): foliar spray; for Effectiveness Covered (%) (decline in TMV lesions vs UTC, systemic response) / Effectiveness Uncovered (%) (decline in TMV lesions vs UTC, local response): TMV 3 days post-treatment, scored 3 days after inoculation
Soy plants = test: Growth tests after foliar spray, soy; type: in vivo; settings: for growth, dry biomass and fresh mass (text summary of Table 21): foliar spray; for Dry biomass increase (%) / Fresh mass increase (%) / Growth increase (%): soy, 14 days
Description: Soy seeds (or corn seeds, as indicated) were planted in flats with 2 seeds per cell within the flat at a greenhouse facility. The seeds were allowed to germinate and the smaller plant is culled, leaving one plant per cell. Once the first true leaves are fully expanded and the second leaves are beginning to expand, the plants were initially measured for height. This was performed by stretching the highest leaf upward and measuring the distance to the soil. Peptides were dissolved in water at the indicated concentrations (Table 21 below). The plants were then treated with a foliar spray using widely available spray bottles until liquid was dripping from the leaves. Six flats of 14 plants each were treated per condition (peptide or control). Designated untreated control plants were sprayed with water. The plants were allowed to grow for 14 days. The height of the plants was again measured and compared to the original height to quantify growth. Finally, the plants were harvested by removing the shoots (all above-ground material). For some experiments, this was weighed upon harvesting to determine the fresh mass (including water weight). The shoots were then dried at 70° C. for 72 hours, and again weighed to determine dry biomass. Although this method uses a similar measure (growth) as in Example 3 above, the treatment method is different (seed soak vs. foliar spray). As a result, the experimental outcomes may diverge.

Sequence	Effectiveness Covered (%) (decline in TMV lesions vs UTC, systemic response) ([1]; spray 10 ug/ml)	Effectiveness Uncovered (%) (decline in TMV lesions vs UTC, local response) ([1]; spray 10 ug/ml)	Dry biomass increase (%) (Soy plants; foliar spray 5.0 ug/ml)	Growth increase (%) (Soy plants; foliar spray 5.0 ug/ml)	Effectiveness Covered (%) (decline in TMV lesions vs UTC, systemic response) ([1]; spray 20 ug/ml)	Effectiveness Uncovered (%) (decline in TMV lesions vs UTC, local response) ([1]; spray 20 ug/ml)	other results
QAGPQSANKTGNVDDANNQDPMQALMQLL (P14-dc4)	19%	34%	−7.6%	−17%	–	–	TMV response / effectiveness against TMV infection (summary of Table 22) [1]: reduced effectiveness against TMV infection; growth, dry biomass and fresh mass (text summary of Table 21) (Soy plants): lose the significant growth, dry biomass, and fresh mass benefits; Dry biomass increase (%) (Soy plants; foliar spray 0.2 ug/ml): 5.6%; Fresh mass increase (%) (Soy plants; foliar spray 0.2 ug/ml): 7.5%; Growth increase (%) (Soy plants; foliar spray 0.2 ug/ml): 2.6%; Dry biomass increase (%) (Soy plants; foliar spray 2.0 ug/ml): −1.6%; Fresh mass increase (%) (Soy plants; foliar spray 2.0 ug/ml): 0.4%; Growth increase (%) (Soy plants; foliar spray 2.0 ug/ml): −4.6%; Fresh mass increase (%) (Soy plants; foliar spray 5.0 ug/ml): −15.4%
SEEEEELEQLLEDLVKLL (P14-32)	–	–	14%	12.5%	82* %	90* %	growth, dry biomass and fresh mass (text summary of Table 21) (Soy plants): increases in growth and dry biomass; Dry biomass increase (%) (Soy plants; foliar spray 0.2 ug/ml): 6.8%; Fresh mass increase (%) (Soy plants; foliar spray 0.2 ug/ml): 2.9%; Growth increase (%) (Soy plants; foliar spray 0.2 ug/ml): 9.5%; Dry biomass increase (%) (Soy plants; foliar spray 2.0 ug/ml): 8.2%; Fresh mass increase (%) (Soy plants; foliar spray 2.0 ug/ml): 27.6%; Growth increase (%) (Soy plants; foliar spray 2.0 ug/ml): 1.7%; Fresh mass increase (%) (Soy plants; foliar spray 5.0 ug/ml): 33.3%
SQGISEKQLDQDLSQLIQALLQP (P4-14S-12D)	–	–	−3.6%	−4.2%	–	–	TMV response / effectiveness against TMV infection (summary of Table 22) [1]: produced the best results; Effectiveness Covered (%) (decline in TMV lesions vs UTC, systemic response) ([1]; spray 5.0 ug/ml): 60* %; Effectiveness Uncovered (%) (decline in TMV lesions vs UTC, local response) ([1]; spray 5.0 ug/ml): 61* %
KPNDSQSNIAKLISALI (P15-62)	–	–	–	–	−122%	94* %	–
SQGISEKQLDQLLSQLIQALDQP (P4-14S-21D)	48%	49%	–	–	–	–	–
SQGISEKQLADQLLSQLIQALLQP (P4-i10A)	81%	92%	–	–	–	–	–
SEEEEEEIAKLISALI (P15-63)	–	–	–	–	74* %	90* %	–
SQGISEKQLDQLLASQLIQALLQP (P4-i14A)	77%	75%	–	–	–	–	–
SEEEEELKASLKLIARLL (P19min-10S)	–	–	–	–	94* %	81* %	–
